Assay results: publication PMC10686834, “Targeting myeloid chemotaxis to reverse prostate cancer therapy resistance” (Nature, 2023)

System: patients with ARSI-resistant mCRPC
Assay: Phase 1 trial of AZD5069 plus enzalutamide: safety and tolerability (DLTs, treatment-emergent adverse events, NCI-CTCAE v.4.0)
Format: in vivo
Text: The primary trial objective was to evaluate the safety and tolerability of the combination. Key secondary objectives were to evaluate pharmacokinetic–pharmacodynamic parameters and antitumour activity.
Eligible patients were consenting patients aged ≥18 years, who had mCRPC with histologically confirmed prostate adenocarcinoma histology, documented cancer progression at the time of trial entry by Response Evaluation Criteria in Solid Tumors (v.1.1) and/or Prostate Cancer Working Group 2 criteria, and PSA of ≥10 ng ml^−1 at screening.
The dose-escalation phase used a rule-based 3 + 3 design, with an initial three patients enrolled per dose level. If none of the first three patients experienced a DLT, dose escalation proceeded to the next dose level. […] If fewer than two of six patients at any dose level experienced a DLT, dose escalation continued to the next level. If at least two out of up to six patients experienced a DLT, dose escalation stopped and this dose level was defined as the maximum administered dose. Once this maximum administered dose was defined, the maximum tolerated dose (MTD) was confirmed at the dose level below the maximum administered dose. At least six evaluable patients were required to establish the MTD at a specific dose level. […] Intra-patient dose escalation was not permitted. Start of dosing between the first and second patient enrolled to each dose level was staggered by 1 week. Once the MTD was determined in the phase 1 study, the recommended phase 2 dose was determined on the basis of available data, including but not limited to safety and response.
DLTs were defined as described in the study protocol. […] Prophylaxis with growth factor support or antipyretics were not permitted. Investigators determined whether an adverse event was related to the study drugs. If a patient experienced clinically significant and/or unacceptable toxicity, including a DLT, not attributable to the disease or disease-related processes, dosing was interrupted or the dose was reduced and supportive therapy was administered as required.

SMILES: C[C@@H](Oc1cc(NS(=O)(=O)N2CCC2)nc(SCc2cccc(F)c2F)n1)[C@@H](O)CO [AZD5069]
- TEAE Hypophosphataemia, All G (AZD5069 80 mg BD (n=4)): 1 (25) n (%)
- TEAE Hypophosphataemia, G≥3 (AZD5069 80 mg BD (n=4)): 0 (0) n (%)
- TEAE Nausea, All G (AZD5069 80 mg BD (n=4)): 0 (0) n (%)
- TEAE Nausea, G≥3 (AZD5069 80 mg BD (n=4)): 0 (0) n (%)
- TEAE Neutrophil decreased, All G (AZD5069 80 mg BD (n=4)): 3 (75) n (%)
- TEAE Neutrophil decreased, G≥3 (AZD5069 80 mg BD (n=4)): 1 (25) n (%)
- TEAE Oedema genital, All G (AZD5069 80 mg BD (n=4)): 0 (0) n (%)
- TEAE Oedema genital, G≥3 (AZD5069 80 mg BD (n=4)): 0 (0) n (%)
- TEAE Platelet decreased, All G (AZD5069 80 mg BD (n=4)): 0 (0) n (%)
- TEAE Platelet decreased, G≥3 (AZD5069 80 mg BD (n=4)): 0 (0) n (%)
- TEAE Pruritus, All G (AZD5069 80 mg BD (n=4)): 0 (0) n (%)
- TEAE Pruritus, G≥3 (AZD5069 80 mg BD (n=4)): 0 (0) n (%)
- TEAE Skin infection, All G (AZD5069 80 mg BD (n=4)): 1 (25) n (%)
- TEAE Skin infection, G≥3 (AZD5069 80 mg BD (n=4)): 0 (0) n (%)
- TEAE Vomiting, All G (AZD5069 80 mg BD (n=4)): 0 (0) n (%)
- TEAE Vomiting, G≥3 (AZD5069 80 mg BD (n=4)): 0 (0) n (%)
- TEAE White blood cell decreased, All G (AZD5069 80 mg BD (n=4)): 0 (0) n (%)
- TEAE White blood cell decreased, G≥3 (AZD5069 80 mg BD (n=4)): 0 (0) n (%)
- TEAE Anemia, All G (AZD5069 120 mg BD (n=3)): 1 (33) n (%)
- TEAE Anemia, G≥3 (AZD5069 120 mg BD (n=3)): 0 (0) n (%)
- TEAE Aphasia, All G (AZD5069 120 mg BD (n=3)): 0 (0) n (%)
- TEAE Aphasia, G≥3 (AZD5069 120 mg BD (n=3)): 0 (0) n (%)
- TEAE Arthralgia, All G (AZD5069 120 mg BD (n=3)): 0 (0) n (%)
- TEAE Arthralgia, G≥3 (AZD5069 120 mg BD (n=3)): 0 (0) n (%)
- TEAE Aspartate aminotransferase increased, All G (AZD5069 120 mg BD (n=3)): 0 (0) n (%)
- TEAE Aspartate aminotransferase increased, G≥3 (AZD5069 120 mg BD (n=3)): 0 (0) n (%)
- TEAE Constipation, All G (AZD5069 120 mg BD (n=3)): 1 (33) n (%)
- TEAE Constipation, G≥3 (AZD5069 120 mg BD (n=3)): 0 (0) n (%)
- TEAE Death, All G (AZD5069 120 mg BD (n=3)): 0 (0) n (%)
- TEAE Death, G≥3 (AZD5069 120 mg BD (n=3)): 0 (0) n (%)
- TEAE Decreased appetite, All G (AZD5069 120 mg BD (n=3)): 0 (0) n (%)
- TEAE Decreased appetite, G≥3 (AZD5069 120 mg BD (n=3)): 0 (0) n (%)
- TEAE Diarrhoea, All G (AZD5069 120 mg BD (n=3)): 0 (0) n (%)
- TEAE Diarrhoea, G≥3 (AZD5069 120 mg BD (n=3)): 0 (0) n (%)
- TEAE Dry skin, All G (AZD5069 120 mg BD (n=3)): 0 (0) n (%)
- TEAE Dry skin, G≥3 (AZD5069 120 mg BD (n=3)): 0 (0) n (%)
- TEAE Fatigue, All G (AZD5069 120 mg BD (n=3)): 1 (33) n (%)
- TEAE Fatigue, G≥3 (AZD5069 120 mg BD (n=3)): 0 (0) n (%)
- TEAE Headache, All G (AZD5069 120 mg BD (n=3)): 0 (0) n (%)
- TEAE Headache, G≥3 (AZD5069 120 mg BD (n=3)): 0 (0) n (%)
- TEAE Hypophosphataemia, All G (AZD5069 120 mg BD (n=3)): 0 (0) n (%)
- TEAE Hypophosphataemia, G≥3 (AZD5069 120 mg BD (n=3)): 0 (0) n (%)
- TEAE Nausea, All G (AZD5069 120 mg BD (n=3)): 1 (33) n (%)
- TEAE Nausea, G≥3 (AZD5069 120 mg BD (n=3)): 0 (0) n (%)
- TEAE Neutrophil decreased, All G (AZD5069 120 mg BD (n=3)): 3 (100) n (%)
- TEAE Neutrophil decreased, G≥3 (AZD5069 120 mg BD (n=3)): 2 (67) n (%)
- TEAE Oedema genital, All G (AZD5069 120 mg BD (n=3)): 0 (0) n (%)
- TEAE Oedema genital, G≥3 (AZD5069 120 mg BD (n=3)): 0 (0) n (%)
- TEAE Platelet decreased, All G (AZD5069 120 mg BD (n=3)): 1 (33) n (%)
- TEAE Platelet decreased, G≥3 (AZD5069 120 mg BD (n=3)): 0 (0) n (%)
- TEAE Pruritus, All G (AZD5069 120 mg BD (n=3)): 0 (0) n (%)
- TEAE Pruritus, G≥3 (AZD5069 120 mg BD (n=3)): 0 (0) n (%)
- TEAE Skin infection, All G (AZD5069 120 mg BD (n=3)): 0 (0) n (%)
- TEAE Skin infection, G≥3 (AZD5069 120 mg BD (n=3)): 0 (0) n (%)
- TEAE Vomiting, All G (AZD5069 120 mg BD (n=3)): 0 (0) n (%)
- TEAE Vomiting, G≥3 (AZD5069 120 mg BD (n=3)): 0 (0) n (%)
- TEAE White blood cell decreased, All G (AZD5069 120 mg BD (n=3)): 0 (0) n (%)
- TEAE White blood cell decreased, G≥3 (AZD5069 120 mg BD (n=3)): 0 (0) n (%)
- TEAE Anemia, All G (AZD5069 160 mg BD (n=6)): 2 (33) n (%)
- TEAE Anemia, G≥3 (AZD5069 160 mg BD (n=6)): 1 (17) n (%)
- TEAE Aphasia, All G (AZD5069 160 mg BD (n=6)): 0 (0) n (%)
- TEAE Aphasia, G≥3 (AZD5069 160 mg BD (n=6)): 0 (0) n (%)
- TEAE Arthralgia, All G (AZD5069 160 mg BD (n=6)): 0 (0) n (%)
